Measurements published in patent US10544130B2, “Metallo-beta-lactamase inhibitors” (priority 2015, dated 2020).

tested on: Serratia marcescens expressing IMP-1 (CL5741); assay type: cell-based; details: with imipenem 1 μg/ml; 95% inhibition of bacterial growth
Method: Antibiotic Potentiation Activity: Determination of Synergistic Concentration
The bacterial strains tested included the clinical strains Escherichia coli expressing NDM-1 (CLB30005, CLB30016), Serratia marcescens expressing IMP-1 (CL5741), and Klebsiella pneumoniae expressing VIM-1 (IHMA599644). Inhibitor activity was measured in the presence and absence of imipenem in a 384-well microplate.
The clinical strains CLB30016, CL5741 and IHMA599644 were grown on trypticase soy agar containing 5% sheep's blood. The bacteria on agar plates were incubated at 35° C. with humidity overnight. The following day, individual colonies from each clinical strain were picked and resuspended in 5 ml saline to attain an OD600 of 0.14, 0.11, 0.15 and 0.13, for CLB30016, CL5741 and IHMA599644, respectively. These were further diluted 1:100 into 1.1× CAMHB and used to inoculate the test wells as described below.
Imipenem in 10 mM 3-(N-morpholino)propanesulfonic acid (MOPS, pH 7) was stored in single use aliquots at −80° C. […] On the day of the assay, 4 μl of antibiotic was added to 45 ul of bacteria followed by 1 μl of test compound and mixed by pipetting and with an orbital shaker. The concentration of antibiotic used in the assay was 1 μg/ml. Microplates were covered and incubated at 35° C. for 22 hours to 24 hours. At the end of the incubation, absorbance was determined using a spectrophotometer.

N[C@@H]1CNC[C@@H]1NS(=O)(=O)c1ccc(-c2cccn3ccnc23)c(-c2nn[nH]n2)c1S(N)(=O)=O [Example 328, N1-((3S,4R)-4-aminopyrrolidin-3-yl)-4-(imidazo[1,2-a]pyridin-8-yl)-3-(2H-tetrazol-5-yl)benzene-1,2-disulfonamide] and Nc1ccc(-c2ccc(S(=O)(=O)N[C@H]3CNC[C@H]3N)c(S(N)(=O)=O)c2-c2nn[nH]n2)cn1 [Example 413, 4-(6-aminopyridin-3-yl)-N^1-((3S,4R)-4-aminopyrrolidin-3-yl)-3-(2H-tetrazol-5-yl)benzene-1,2-disulfonamide] are the same in “Serratia marcescens (IMP-1) MITC95” value: 1.563 µM for the first, 1.563 µM for the second.

Going from NC[C@@H](N)CNS(=O)(=O)c1ccc(-c2cnc3cc[nH]c3c2)c(-c2nn[nH]n2)c1S(N)(=O)=O [Example 378, (R)-N 1-(2,3-diaminopropyl)-4-(1H-pyrrolo[3,2-b]pyridin-6-yl)-3-(2H-tetrazol-5-yl)benzene-1,2-disulfonamide] to Cc1cc(-c2ccc(S(=O)(=O)NC[C@@H](O)CN)c(S(N)(=O)=O)c2-c2nn[nH]n2)cnc1N [Example 468, (S)-N1-(3-amino-2-hydroxypropyl)-4-(6-amino-5-methylpyridin-3-yl)-3-(2H-tetrazol-5-yl)benzene-1,2-disulfonamide], the “Serratia marcescens (IMP-1) MITC95” value falls from 1.563 µM to 0.7813 µM (2-fold).

Nc1ccc(-c2ccc(S(=O)(=O)N[C@H]3CNC[C@H]3O)c(S(N)(=O)=O)c2-c2nn[nH]n2)cn1 [Example 410, 4-(6-aminopyridin-3-yl)-N^1-((3S,4R)-4-hydroxypyrrolidin-3-yl)-3-(2H-tetrazol-5-yl)benzene-1,2-disulfonamide] and Nc1ccc(-c2ccc(S(=O)(=O)NC3CC(N)C3)c(S(N)(=O)=O)c2-c2nn[nH]n2)cn1 [Example 483, N1-((1R,3R)-3-aminocyclobutyl)-4-(6-aminopyridin-3-yl)-3-(2H-tetrazol-5-yl)benzene-1,2-disulfonamide] are the same in “Serratia marcescens (IMP-1) MITC95” value: 0.7813 µM for the first, 0.7813 µM for the second.

Going from Nc1ccc(-c2ccc(S(=O)(=O)NC[C@@H]3CCNC3)c(S(N)(=O)=O)c2-c2nn[nH]n2)cn1 [Example 491, (R)-4-(6-aminopyridin-3-yl)-N1-(pyrrolidin-3-ylmethyl)-3-(2H-tetrazol-5-yl)benzene-1,2-disulfonamide] to Nc1ccc(-c2ccc(S(=O)(=O)NCC3(O)CCNCC3)c(S(N)(=O)=O)c2-c2nn[nH]n2)cn1 [Example 492, 4-(6-aminopyridin-3-yl)-N1-((4-hydroxypiperidin-4-yl)methyl)-3-(2H-tetrazol-5-yl)benzene-1,2-disulfonamide], the “Serratia marcescens (IMP-1) MITC95” value rises from 0.7813 µM to 1.563 µM (2-fold).

Going from NCCNS(=O)(=O)c1ccc(-c2ccnc(CN)c2)c(-c2nn[nH]n2)c1S(N)(=O)=O [Example 461, N1-(2-Aminoethyl)-4-(2-(aminomethyl)pyridin-4-yl)-3-(2H-tetrazol-5-yl)benzene-1,2-disulfonamide] to C[C@H](N)CNS(=O)(=O)c1ccc(-c2ccc(N)nc2)c(-c2nn[nH]n2)c1S(N)(=O)=O [Example 479, (S)—N1-(2-aminopropyl)-4-(6-aminopyridin-3-yl)-3-(2H-tetrazol-5-yl) benzene-1,2-disulfonamide], the “Serratia marcescens (IMP-1) MITC95” value falls from 3.125 µM to 0.7813 µM (4-fold).

Nc1ccc(-c2ccc(S(=O)(=O)N[C@H]3CN[C@H](CO)C3)c(S(N)(=O)=O)c2-c2nn[nH]n2)cn1 [Example 411, 4-(6-aminopyridin-3-yl)-N^1-((3R,5S)-5-(hydroxymethyl)pyrrolidin-3-yl)-3-(2H-tetrazol-5-yl)benzene-1,2-disulfonamide] and NC[C@@H](CO)NS(=O)(=O)c1ccc(-c2ccc(N)nc2)c(-c2nn[nH]n2)c1S(N)(=O)=O [Example 409, (S)-N^1-(1-amino-3-hydroxypropan-2-yl)-4-(6-aminopyridin-3-yl)-3-(2H-tetrazol-5-yl)benzene-1,2-disulfonamide] are the same in “Serratia marcescens (IMP-1) MITC95” value: 1.563 µM for the first, 1.563 µM for the second.

Compared with CN(CCN)S(=O)(=O)c1ccc(-c2cccc3[nH]c(N)nc23)c(-c2nn[nH]n2)c1S(N)(=O)=O [Example 449, 4-(2-amino-1H-benzo[d]imidazol-4-yl)-N^1-(2-aminoethyl)-N^1-methyl-3-(2H-tetrazol-5-yl)benzene-1,2-disulfonamide], NC[C@H](CO)NS(=O)(=O)c1ccc(-c2cccc3nc(N)[nH]c23)c(-c2nn[nH]n2)c1S(N)(=O)=O [Example 427, (R)-4-(2-amino-1H-benzo[d]imidazol-4-yl)-N^1-(1-amino-3-hydroxypropan-2-yl)-3-(1H-tetrazol-5-yl)benzene-1,2-disulfonamide] is 2-fold lower in “Serratia marcescens (IMP-1) MITC95” value: 1.563 µM for the first, 0.7813 µM for the second.

Nc1ncc(-c2ccc(S(=O)(=O)N[C@@H]3CCNC3)c(S(N)(=O)=O)c2-c2nn[nH]n2)s1 [Example 284, (R)-4-(2-aminothiazol-5-yl)-N1-(pyrrolidin-3-yl)-3-(2H-tetrazol-5-yl)benzene-1,2-disulfonamide] and Nc1ccc2cccc(-c3ccc(S(=O)(=O)N[C@@H]4CCNC4)c(S(N)(=O)=O)c3-c3nn[nH]n3)c2n1 [Example 286, (R)-4-(2-aminoquinolin-8-yl)-N1-(pyrrolidin-3-yl)-3-(2H-tetrazol-5-yl)benzene-1,2-disulfonamide] are the same in “Serratia marcescens (IMP-1) MITC95” value: 0.7813 µM for the first, 0.7813 µM for the second.

First: Nc1nc2c(-c3ccc(S(=O)(=O)N[C@@H]4C[C@H]4N)c(S(N)(=O)=O)c3-c3nnn[nH]3)cccc2[nH]1 [Example 448, 4-(2-amino-1H-benzo[d]imidazol-4-yl)-N^1-((1R,2R)-2-aminocyclopropyl)-3-(1H-tetrazol-5-yl)benzene-1,2-disulfonamide]
Second: NCCCNS(=O)(=O)c1ccc(-c2cc(F)cc3[nH]c(N)nc23)c(-c2nn[nH]n2)c1S(N)(=O)=O [Example 402, 4-(2-amino-6-fluoro-1H-benzo[d]imidazol-4-yl)-N^1-(3-aminopropyl)-3-(2H-tetrazol-5-yl)benzene-1,2-disulfonamide]
The “Serratia marcescens (IMP-1) MITC95” value of the first is 2-fold higher: 1.563 µM for the first, 0.7813 µM for the second.

First: NS(=O)(=O)c1c(S(=O)(=O)NC[C@H]2CNCCN2)ccc(-c2cccc3[nH]cnc23)c1-c1nn[nH]n1 [Example 481, (R)-4-(1H-benzo[d]imidazol-4-yl)-N1-(piperazin-2-ylmethyl)-3-(1H-tetrazol-5-yl)benzene-1,2-disulfonamide]
Second: Nc1ccc(-c2ccc(S(=O)(=O)N3CCNCC3)c(S(N)(=O)=O)c2-c2nn[nH]n2)cn1 [Example 485, 3-(6-aminopyridin-3-yl)-6-(piperazin-1-ylsulfonyl)-2-(2H-tetrazol-5-yl)benzenesulfonamide]
The “Serratia marcescens (IMP-1) MITC95” value of the first is 2-fold higher: 1.563 µM for the first, 0.7813 µM for the second.

Going from NC[C@@H](O)CNS(=O)(=O)c1ccc(-c2ccc3nccn3c2)c(-c2nn[nH]n2)c1S(N)(=O)=O [Example 420, (R)-N^1-(3-amino-2-hydroxypropyl)-4-(imidazo[1,2-a]pyridin-6-yl)-3-(2H-tetrazol-5-yl)benzene-1,2-disulfonamide] to C[C@H](CN)NS(=O)(=O)c1ccc(-c2ccc(N)nc2)c(-c2nn[nH]n2)c1S(N)(=O)=O [Example 393, (R)—N^1-(1-aminopropan-2-yl)-4-(6-aminopyridin-3-yl)-3-(2H-tetrazol-5-yl)benzene-1,2-disulfonamide], the “Serratia marcescens (IMP-1) MITC95” value falls from 1.563 µM to 1.042 µM (1.5-fold).

same assay, conditions: with imipenem 1 μg/ml; 95% inhibition of bacterial growth; CL5741

Cl.Cl.NCCCNS(=O)(=O)c1ccc(-c2ccc(N)nc2)c(-c2nn[nH]n2)c1S(N)(=O)=O [Example 496, N1-(3-aminopropyl)-4-(6-aminopyridin-3-yl)-3-(2H-tetrazol-5-yl)benzene-1,2-disulfonamide hydrogen chloride] and Nc1ccc(-c2ccc(S(=O)(=O)NCC3(O)CNC3)c(S(N)(=O)=O)c2-c2nn[nH]n2)cn1 [Example 495, 4-(6-aminopyridin-3-yl)-N1-((3-hydroxyazetidin-3-yl)methyl)-3-(2H-tetrazol-5-yl)benzene-1,2-disulfonamide] are the same in “Serratia marcescens (IMP-1) MITC95” value: 0.7813 µM for the first, 0.7813 µM for the second.

Compared with CC1(NS(=O)(=O)c2ccc(-c3ccc(N)nc3)c(-c3nn[nH]n3)c2S(N)(=O)=O)CNC1.Cl.Cl [Example 497, 4-(6-aminopyridin-3-yl)-1-N-(3-methylazetidin-3-yl)-3-(2H-1,2,3,4-tetrazol-5-yl)benzene-1,2-disulfonamide hydrogen chloride], Nc1ccc(-c2ccc(S(=O)(=O)N[C@H]3CCCNC3)c(S(N)(=O)=O)c2-c2nn[nH]n2)cn1 [Example 494, (S)-4-(6-aminopyridin-3-yl)-N1-(piperidin-3-yl)-3-(2H-tetrazol-5-yl)benzene-1,2-disulfonamide] is 2-fold higher in “Serratia marcescens (IMP-1) MITC95” value: 0.7813 µM for the first, 1.563 µM for the second.

tested on: Pseudomonas aeruginosa PAO1 MB9798 (efflux+, IMP-1); details: ratio MITC95 PA 9798/MITC95 PA 9799; imipenem at 2 μg/mL
How it was run: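 Isogenic PAO1 pair (efflux+ MB9798, efflux− MB9799, both IMP-1) tested by microbroth MIC with fixed imipenem and/or ceftazidime, usually at CLSI breakpoint, plus fixed class A/C inhibitor against AmpC. MBL inhibitor titrated; concentration restoring susceptibility recorded and fold difference between strains taken as efflux extent.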

Compared with N[C@@H]1CNC[C@@H]1NS(=O)(=O)c1ccc(-c2cccn3ccnc23)c(-c2nn[nH]n2)c1S(N)(=O)=O [Example 328, N1-((3S,4R)-4-aminopyrrolidin-3-yl)-4-(imidazo[1,2-a]pyridin-8-yl)-3-(2H-tetrazol-5-yl)benzene-1,2-disulfonamide], NC[C@@H](N)CNS(=O)(=O)c1ccc(-c2cnc3cc[nH]c3c2)c(-c2nn[nH]n2)c1S(N)(=O)=O [Example 378, (R)-N 1-(2,3-diaminopropyl)-4-(1H-pyrrolo[3,2-b]pyridin-6-yl)-3-(2H-tetrazol-5-yl)benzene-1,2-disulfonamide] is higher in Efflux ratio: 1.00 for the first, 2.00 for the second.
